Results reported in patent US20060222628A1, “Gallium complexes of 3-hydroxy-4-pyrones to treat infection by intracellular prokaryotes and DNA viruses” (priority 1999, published 2006).

Assays:
EBV and KSV = assay: Clinical evaluation for prevention of EBV or KSV neoplasms in HIV patients: neoplasia; format: in vivo, human
Text: (§1) Both EBV and KSV cause neoplasms, with both causing lymphomas and KSV ([…]) along with HHV-7, possibly in concert with HHV-6 associated with the pathogenesis of Kaposi Sarcoma. Most humans carry all these viruses. A HIV population could be studied without determining whether any of the patients are seropositive or culturable for these pathogens, or preferably a group of HIV patients who are seropositive or culture positive for both EBV and KSV can be identified. Applying the methods of Example 12 with additional guidance from Schneider et al. (2000), supra, yields a protocol for evaluating the contribution of the gallium compounds of the invention in prevention of opportunistic neoplasms caused by the herpes viruses with combination antiviral therapy.
Using essentially the same protocol as Example 12, but with an HIV infected patient population that is seropositive or culture positive for both EBV and KSV and substituting the specific assays such as PCR, serodetection for the EBV and KSV viruses, the role of gallium as a combination agent in preventing the neoplasms caused by members of the herpesvirus family in HIV disease can be evaluated. The subpopulations are divided according to CD4 counts as in Example 12. Each subpopulation's first group is treated in addition to the foscarnet with interferon-alpha. Each subpopulation's second group is treated in addition to the ganciclovir with the same doses of foscarnet and interferon-alpha as the first group. The dosages of the foscarnet and are as in Example 12, as are the dosages for the gallium maltolate for each groups four subgroups. Thus within each subpopulation, gallium plus foscarnet plus traditional HAART is compared to gallium plus foscarnet plus traditional HAART plus ganciclovir. An all oral regimen would be preferable but success would be unlikely. The dosage level for the interferon-alpha used is that used for treating Kaposi Sarcoma (20 million IU every day by injection), a dose that may require adjustment for tolerance in some patients. […]

HIV = assay: Clinical evaluation for prevention of EBV or KSV neoplasms in HIV patients: HIV; format: in vivo; details: neoplasm prevention study; MacSynergy II
Text: as §1
Using essentially the same protocol as Example 12, but with an HIV infected patient population that is seropositive or culture positive for both EBV and KSV and substituting the specific assays such as PCR, serodetection for the EBV and KSV viruses, the role of gallium as a combination agent in preventing the neoplasms caused by members of the herpesvirus family in HIV disease can be evaluated. The subpopulations are divided according to CD4 counts as in Example 12. Each subpopulation's first group is treated in addition to the foscarnet with interferon-alpha. […]

Cc1occc(=O)c1[O-].Cc1occc(=O)c1[O-].Cc1occc(=O)c1[O-].[Ga+3] [gallium maltolate, tris(3-hydroxy-2-methyl-4H-pyran-4-onato)gallium]
Efficacy in preventing herpesvirus neoplasia in combination (EBV and KSV; HIV infected patients on HAART, with foscarnet, interferon-alpha, ganciclovir): effective in combination with foscarnet, interferon and ganciclovir | Prevention of opportunistic herpesvirus associated neoplasms (EBV and KSV; combined with foscarnet, ganciclovir and interferon, high CD4+ group): producing the best results | Synergy in preventing herpesvirus neoplasia (EBV and KSV; with foscarnet, interferon and ganciclovir): synergistic with all | Synergy with the HAART regime on HIV infection (HIV): synergistic with the HAART regime in their effects upon the HIV infection
